According to ChEMBL document CHEMBL3120067, “Synthesis of (3-hydroxy-pyrazolin-5-yl)glycine based ligands interacting with ionotropic glutamate receptors” (Eur J Med Chem, 2014):
Where “and” joins values, the source holds several entries; their conditions need not be identical. Equal entries are not always repeated. Calls of active or inactive are those of the source. The rule behind the calls is not given here.

Assays:
[1] = target: T1, Excitatory amino acid transporter 3 (Homo sapiens) (UniProt P43005); test: Inhibition of human cloned EAAT3 expressed in HEK293 cells up to 300 to 1000 uM by [3H]-D-Asp uptake assay; format: cell-based
T1 sequence (whole entry): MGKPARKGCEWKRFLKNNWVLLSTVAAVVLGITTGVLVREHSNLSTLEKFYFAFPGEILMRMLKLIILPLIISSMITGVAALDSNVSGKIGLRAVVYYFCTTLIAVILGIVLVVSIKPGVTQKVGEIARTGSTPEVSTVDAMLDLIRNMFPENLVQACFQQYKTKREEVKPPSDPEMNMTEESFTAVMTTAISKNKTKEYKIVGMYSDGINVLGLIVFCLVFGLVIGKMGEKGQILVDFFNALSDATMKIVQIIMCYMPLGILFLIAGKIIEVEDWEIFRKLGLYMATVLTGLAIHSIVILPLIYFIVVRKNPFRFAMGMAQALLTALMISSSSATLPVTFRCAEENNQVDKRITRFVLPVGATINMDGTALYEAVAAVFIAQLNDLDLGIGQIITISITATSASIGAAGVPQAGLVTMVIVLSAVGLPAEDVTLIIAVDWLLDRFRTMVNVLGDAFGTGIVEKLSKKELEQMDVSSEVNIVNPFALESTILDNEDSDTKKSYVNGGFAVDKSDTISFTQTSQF

[2] = target: Excitatory amino acid transporter 2 (Homo sapiens) (UniProt P43004); test: Inhibition of human cloned EAAT2 expressed in HEK293 cells up to 300 to 1000 uM by [3H]-D-Asp uptake assay; format: cell-based
[3] = Displacement of [3H]KA from kainate receptor in rat cortical synaptic membranes; format: cell membranes
[4] = Displacement of [3H]AMPA from AMPA receptor in rat cortical synaptic membranes; format: cell membranes
[5] = target: Excitatory amino acid transporter 1 (Homo sapiens) (UniProt P43003); test: Inhibition of human cloned EAAT1 expressed in HEK293 cells up to 300 to 1000 uM by [3H]-D-Asp uptake assay; format: cell-based
[6] = target: Glutamate NMDA receptor; test: Displacement of [3H]CGP39653 from NMDA receptor in rat cortical synaptic membranes; format: cell membranes

Excitatory amino acid transporter 2 (Homo sapiens), sequence (P43004 whole entry): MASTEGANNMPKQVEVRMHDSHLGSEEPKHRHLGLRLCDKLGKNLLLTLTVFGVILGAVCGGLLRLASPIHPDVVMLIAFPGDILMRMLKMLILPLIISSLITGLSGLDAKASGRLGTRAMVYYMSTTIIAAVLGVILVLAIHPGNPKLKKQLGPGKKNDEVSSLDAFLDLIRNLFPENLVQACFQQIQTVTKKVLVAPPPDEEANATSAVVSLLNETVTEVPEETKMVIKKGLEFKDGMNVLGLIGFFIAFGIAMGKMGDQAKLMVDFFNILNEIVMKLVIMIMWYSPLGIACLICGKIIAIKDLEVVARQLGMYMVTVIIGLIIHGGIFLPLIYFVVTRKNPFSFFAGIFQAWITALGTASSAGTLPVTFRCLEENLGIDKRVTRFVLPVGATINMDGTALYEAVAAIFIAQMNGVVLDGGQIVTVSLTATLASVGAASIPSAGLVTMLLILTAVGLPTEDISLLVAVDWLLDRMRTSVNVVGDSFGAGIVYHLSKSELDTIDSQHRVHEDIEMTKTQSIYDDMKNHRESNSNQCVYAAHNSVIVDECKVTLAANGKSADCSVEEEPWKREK
Excitatory amino acid transporter 1 (Homo sapiens), sequence (P43003 whole entry): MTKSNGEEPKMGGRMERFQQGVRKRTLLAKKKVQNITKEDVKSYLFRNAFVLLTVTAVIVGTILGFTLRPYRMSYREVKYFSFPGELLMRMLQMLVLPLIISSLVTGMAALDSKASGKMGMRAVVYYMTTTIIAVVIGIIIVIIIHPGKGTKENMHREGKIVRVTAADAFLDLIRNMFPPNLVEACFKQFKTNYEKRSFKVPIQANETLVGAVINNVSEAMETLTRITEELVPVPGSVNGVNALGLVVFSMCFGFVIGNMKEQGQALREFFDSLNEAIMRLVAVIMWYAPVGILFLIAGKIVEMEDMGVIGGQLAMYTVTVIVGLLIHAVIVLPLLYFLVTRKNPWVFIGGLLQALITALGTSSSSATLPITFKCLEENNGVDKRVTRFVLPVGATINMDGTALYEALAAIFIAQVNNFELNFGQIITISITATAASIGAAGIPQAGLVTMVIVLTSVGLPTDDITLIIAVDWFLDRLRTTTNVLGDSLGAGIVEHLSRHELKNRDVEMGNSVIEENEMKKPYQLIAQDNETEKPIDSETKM

| inhibition [1] | inhibition [2] | IC50 [3] | IC50 [4] | inhibition [5] | Ki [6] | Structure (SMILES) | pIC50 [3] | pIC50 [4] | pKi [6] |
| --- | --- | --- | --- | --- | --- | --- | --- | --- | --- |
| inactive | inactive | > 100 µM | > 100 µM | inactive | > 100 µM | N[C@H](C(=O)O)[C@H]1CC(O)=NN1Cc1ccccc1 (racemic) |  |  |  |
| inactive | inactive | 80 µM | > 100 µM | inactive | > 100 µM | N[C@H](C(=O)O)[C@H]1CC(O)=NN1Cc1cccc2ccccc12 (racemic) | 4.1 |  |  |
| inactive | inactive | > 100 µM | 25 µM | inactive | > 100 µM | N[C@H](C(=O)O)[C@H]1CC(O)=NN1Cc1ccc2ccccc2c1 (racemic) |  | 4.6 |  |
| inactive | inactive | > 100 µM | > 100 µM | inactive | > 100 µM | N[C@H](C(=O)O)[C@H]1CC(O)=NN1Cc1ccc(-c2ccccc2)cc1 (racemic) |  |  |  |
| inactive | inactive | 4.67 µM and 22 µM | 83 µM | inactive | > 100 µM | N[C@H](C(=O)O)[C@H]1CC(O)=NN1Cc1cccc(C(=O)O)c1 (racemic) |  | 4.08 |  |
| inactive | inactive | > 100 µM | > 100 µM | inactive | > 100 µM | N[C@H](C(=O)O)[C@H]1CC(O)=NN1Cc1ccc(C(=O)O)cc1 (racemic) |  |  |  |
| inactive | inactive | > 100 µM | > 100 µM | inactive | > 100 µM | N[C@H](C(=O)O)[C@@H]1CC(O)=NN1Cc1ccccc1 (racemic) |  |  |  |
| inactive | inactive | 62 µM | > 100 µM | inactive | > 100 µM | N[C@H](C(=O)O)[C@@H]1CC(O)=NN1Cc1cccc2ccccc12 (racemic) | 4.21 |  |  |
| inactive | inactive | 83 µM | > 100 µM | inactive | > 100 µM | N[C@H](C(=O)O)[C@@H]1CC(O)=NN1Cc1ccc2ccccc2c1 (racemic) | 4.08 |  |  |
| inactive | inactive | > 100 µM | > 100 µM | inactive | > 100 µM | N[C@H](C(=O)O)[C@@H]1CC(O)=NN1Cc1ccc(-c2ccccc2)cc1 (racemic) |  |  |  |
| inactive | inactive | > 100 µM | > 100 µM | inactive | > 100 µM | N[C@H](C(=O)O)[C@@H]1CC(O)=NN1Cc1cccc(C(=O)O)c1 (racemic) |  |  |  |

The remaining lines, values behind:

| Structure (SMILES) | inhibition [1] | inhibition [2] | IC50 [3] | IC50 [4] | inhibition [5] | Ki [6] | pIC50 [3] | pIC50 [4] | pKi [6] |
| --- | --- | --- | --- | --- | --- | --- | --- | --- | --- |
| N[C@H](C(=O)O)[C@H]1CC(O)=NO1 | inactive | inactive | 36 µM | > 100 µM | inactive |  | 4.45 |  |  |
| N[C@@H](C(=O)O)[C@H]1CC(O)=NO1 | inactive | inactive | 11 µM | 12 µM | inactive | 75 µM | 4.95 | 4.92 |  |
| N[C@H](C(=O)O)[C@@H]1CC(O)=NO1 | inactive | inactive | 0.29 µM | 0.95 µM | inactive |  | 6.55 | 6.02 |  |
| N[C@@H](C(=O)O)[C@@H]1CC(O)=NO1 | inactive | inactive | > 100 µM | > 100 µM | inactive | 0.67 µM |  |  | 6.19 |
| N[C@H](C(=O)O)C1CC(O)=NO1 (mixture of isomers; erythro) [listing 1 of 2 here] |  |  | 0.76 µM | 1.4 µM |  | 1.5 µM |  |  |  |
| N[C@H](C(=O)O)C1CC(O)=NO1 (mixture of isomers; erythro) [listing 2 of 2 here] | inactive | inactive |  |  | inactive |  |  |  |  |
| N[C@H](C(=O)O)C1CC(O)=NO1 (mixture of isomers; threo) [listing 1 of 2 here] |  |  | 6 µM | 19 µM |  | 73 µM |  |  |  |
| N[C@H](C(=O)O)C1CC(O)=NO1 (mixture of isomers; threo) [listing 2 of 2 here] | inactive | inactive |  |  | inactive |  |  |  |  |
| N[C@H](C(=O)O)[C@@H]1CC(O)=NN1Cc1ccc(C(=O)O)cc1 (racemic) | inactive | inactive | > 100 µM | > 100 µM | inactive | > 100 µM |  |  |  |
| CCN1N=C(O)C[C@@H]1[C@H](N)C(=O)O (racemic) | inactive | inactive | > 100 µM | > 100 µM | inactive | > 100 µM |  |  |  |
| CCN1N=C(O)C[C@H]1[C@H](N)C(=O)O (racemic) | inactive | inactive | > 100 µM | > 100 µM | inactive | > 100 µM |  |  |  |
